Earlier results as cited in US7741050B2, “Identification of agonistic autoantibodies” (Max-Delbrueck-Centrum fuer Molkulare Medizin, priority 2002, dated 2010).

Target: T1, AT1 receptor of cultivated cardiomyocytes (Rattus norvegicus, UniProt P25095)
T1 construct: can stimulate the AT1 receptor of cultivated cardiomyocytes; endogenous in cells; host or cells: primary cultivated cardiomyocytes of newborn rats
T1 sequence (P25095 1-359): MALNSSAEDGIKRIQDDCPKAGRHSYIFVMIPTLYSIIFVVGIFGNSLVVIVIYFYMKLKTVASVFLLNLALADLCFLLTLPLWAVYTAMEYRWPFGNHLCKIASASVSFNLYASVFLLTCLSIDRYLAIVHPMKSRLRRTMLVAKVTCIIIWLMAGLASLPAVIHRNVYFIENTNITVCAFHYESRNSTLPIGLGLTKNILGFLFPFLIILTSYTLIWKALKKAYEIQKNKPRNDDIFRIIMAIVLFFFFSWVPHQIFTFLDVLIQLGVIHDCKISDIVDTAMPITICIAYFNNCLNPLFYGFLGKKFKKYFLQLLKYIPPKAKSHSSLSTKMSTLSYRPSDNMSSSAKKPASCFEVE
Conditions: Losartan 1 μM added to cardiomyocytes stimulated by antibodies of preeclamptic women; cited from earlier work

In the case of `CCCCc1nc(Cl)c(CO)n1Cc1ccc(-c2ccccc2-c2nn[nH]n2)cc1` [Losartan], the beats per minute is given as “reduced”.
